In test [1] the test system is YY1. Put plainly: YY1 activity by luciferase reporter assay in PC-3. In general terms: In a reporter assay the amount or activity of a reporter protein is the signal.
For test [2], the system named is YY1. Nature of the test: YY1 expression in PC-3 cells.
In test [3] the test system is PC-3 cells. Put plainly: Sensitization to TRAIL-induced apoptosis, prostate carcinoma cells. It is filed as cell-based, human. The following applies: 500 μM, 1000 μM, 18 h. As for the experimental part: (§1) Yin-Yang 1 (YY1) is a transcription factor that may activate or repress gene expression. […] In this study, we examined the direct S-nitrosylation of YY1 using the human prostate cancer cell line, PC-3, as model. Culture cells were incubated for 18 h in the presence of various concentrations of the NO donor DETANONOate (500 μM, 1000 μM) that sensitized PC-3 to Fas ligand- and TRAIL-mediated apoptosis. Subsequently, we analyzed for S-nitrosylation of YY1 by various methods. […] Noteworthy, significant constitutive S-nitrosylated proteins were detected. Further, using double immunofluorescence staining microscopy, we co-localized the presence of S-nitrosylated proteins and YY1.

For test [4], the system named is PC-3 cells. Put plainly: Sensitization to Fas ligand-mediated apoptosis, PC-3. The test is classed as cell-based, human. The following applies: 500 μM, 1000 μM, 18 h. The procedure: as §1
Test [5] relates to NF-κB. Nature of the test: NF-κB DNA-binding activity in PC-3 cells. The test is classed as cell-based, human.
Test [6] has as its system DR5. Put plainly: DR5 expression in PC-3 cells by flow, RT-PCR and western. It is filed as cell-based, human.
The target in test [7] is T1, YY1 (Homo sapiens, UniProt P25490). Nature of the test: YY1 activity in B-NHL cell lines. It is filed as cell-based. On the set-up: endogenous in cells; host or cells: 2F7, Ramos, Raji; rituximab-resistant Ramos RR1. The text has this:
(§2) We have recently reported that treatment of B-Non-Hodgkin's Lymphoma (NHL) cell lines with rituximab (anti-CD20 antibody) sensitizes the tumor cells to both chemotherapy and Fas-induced apoptosis (Jazirehi and Bonavida, 2005, Oncogene, 24:2121-2145). This study investigated the underlying molecular mechanism of rituximab-mediated reversal of resistance. Treatment of B-NHL cell lines inhibited the constitutively activated NF-κB. Cells expressing dominant active IκB or treated with NF-κB specific inhibitors were sensitized to both drugs and FasL agonist mAb (CH-11)-induced apoptosis. Downregulation of Bcl-xL expression via inhibition of NF-κB activity correlated with chemosensitivity. […] The role of Bcl-xL expression in the regulation of Fas resistance was not apparent as Ramos HA-Bcl cells were as sensitive as the wild type cells to CH-11-induced apoptosis. […] These findings show two complementary mechanisms underlying the chemo-sensitization and immuno-sensitization of B NHL cells by rituximab via inhibition of NF-κB. The regulation of chemoresistance by NF-B is mediated via Bcl-xL expression whereas the regulation of Fas resistance by NF-B is mediated via YY1 expression and activity.
(§3) We have reported that rituximab triggers and inhibits anti-apoptotic gene products in NHL B-cell lines resulting in sensitization to drug-induced apoptosis (Alas et al., Clin. Cancer Res. 8:836, 2001; Jazirehi et al., Mol. Cancer. Therapy 2:1183, 2003; Vega et al., Oncogene 23:3530, 2004). This study investigated whether rituximab also modifies intracellular signaling pathways resulting in the sensitization of NHL cells to Fas-induced apoptosis. […] Downregulation of YY1 expression was the result of rituximab-induced inhibition of both the p38MAPK signaling pathway and constitutive NF-κB activity. The dual roles of NF-κB and YY1 in the regulation of Fas expression were corroborated by the use of a dominant-active inhibitor of NF-κB (Ramos IκB-ER mutant) and YY1 siRNA, respectively. […]

The test system of test [8] is PC-3 cells. The following applies: TRAIL-resistant human prostate carcinoma (CaP) cell lines; Huerta-Yepez et al. 2004; cited from earlier work.
Test [9] has as its system B-NHL cell lines. Put plainly: Sensitization to CH-11 (FasL agonist mAb)-induced apoptosis in B-NHL cell lines. The test is classed as cell-based.
From the text: as §2, §3

The subject of test [10] is Fas. Nature of the test: Fas expression in B-NHL cell lines (flow cytometry, RT-PCR, Western). It is filed as cell-based.
From the text: as §2, §3
(In flow cytometry, cells or beads pass a laser one at a time.)

Test [11] addresses T1, YY1. Nature of the test: YY1 DNA-binding activity in PC-3 cells. It is filed as cell-based. Further details: endogenous in cells; host or cells: PC-3.
Test [12] concerns p38MAPK signaling pathway. Put plainly: p38MAPK signaling pathway in NHL cell lines. The test is classed as cell-based. Conditions: NHL B cell lines. An excerpt: (§4) We have reported that rituximab triggers and inhibits anti-apoptotic gene products in NHL B-cell lines resulting in sensitization to drug-induced apoptosis (Alas et al., Clin. Cancer Res. 8:836, 2001; Jazirehi et al., Mol. Cancer. Therapy 2:1183, 2003; Vega et al., Oncogene 23:3530, 2004). This study investigated whether rituximab also modifies intracellular signaling pathways resulting in the sensitization of NHL cells to Fas-induced apoptosis. […] Downregulation of YY1 expression was the result of rituximab-induced inhibition of both the p38MAPK signaling pathway and constitutive NF-κB activity. The dual roles of NF-κB and YY1 in the regulation of Fas expression were corroborated by the use of a dominant-active inhibitor of NF-κB (Ramos IκB-ER mutant) and YY1 siRNA, respectively. The role of rituximab-mediated inhibition of the p38MAPK/NF-κB/YY1 pathways, which result in both Fas upregulation and sensitization to CH11-induced apoptosis, was corroborated by the use of specific chemical inhibitors directed at various targets of these pathways. […] Altogether, these findings provide a novel mechanism of rituximab-mediated signaling by inhibiting the p38MAPK/NF-κB/YY1 pathways and resulting in the sensitization of B NHL to Fas-induced apoptosis. […]

Test [13] relates to Ramos cells. The following applies: B-NHL cell lines; Jazirehi and Bonavida 2005; cited from earlier work.
Test [14] has as its system Ramos cells. Put plainly: Chemosensitization to drug-induced apoptosis in Ramos B-NHL cells and variants. It is filed as cell-based.
From the text: as §2

Test [15] has as its system NF-κB. Nature of the test: Constitutive NF-κB activity in NHL cell lines. The test is classed as cell-based. The following applies: NHL B cell lines.
From the text: as §4

Test [16] relates to YY1. Nature of the test: YY1 expression in NHL B-cell lines. Conditions: NHL B cell lines (Example 9). The test is classed as cell-based.
From the text: as §4

Test [17] relates to B-NHL cell lines. The following applies: Jazirehi and Bonavida 2005; cited from earlier work.
For test [18], the system named is YY1. Nature of the test: YY1 expression in rituximab-resistant Ramos RR1 cells. The test is classed as cell-based. Conditions: alone or in combination with NF-κB inhibitors.
Method: Ramos and Ramos RR1 cells were treated with vincristine, VP-16, CDDP, and ADR, and the NF-κB inhibitors Bortezomib and DHMEQ.
The subject of test [19] is DR5 promoter. Nature of the test: DR5 luciferase reporter system (pDR5 wild type) in PC3 cells. The test is classed as cell-based, human. The following applies: PC3 transfected with pDR5, drug treatment vs basal. An excerpt: Another reporter gene system of use in the present invention utilized firefly luciferase luminescence as the reporter signal. In this reporter system, a wild-type DR5 promoter is operably linked to a luciferase reporter sequence. The wild-type DR5YY1 responsive site can be used in parallel with a DR5 promoter having a non-functional YY1 responsive site, for example, a 5′-deletion mutant-605 that includes the YY1 binding site (pDR5/-605) (described in Yoshida, et al, (2001) FEBS Letters, 507:381-385), or a DR5 promoter sequence missing the YY1 binding sequence (pDR5-YY1 mutant) (see, Huerta-Yepez, et al., AACR Abstract, 2005).
However, many drug-resistant tumor cells are also resistant to TRAIL and such tumors require sensitization to reverse TRAIL resistance. […] This hypothesis was tested by examining a luciferase reporter system (pDR5 wild type) and plasmids in which the YY1-binding site was either deleted (pDR5/-605) and/or mutated (pDR5-YY1 mutant).

Test [20] deals with PC-3 cells. Put plainly: General S-nitrosylation of proteins in PC-3 by immunohistochemistry. The test is classed as cell-based, human. The following applies: PC-3, after treatment with NO. The procedure: as §1

Counter-ions that a name gives are not always drawn.

T1 sequence (P25490 whole entry): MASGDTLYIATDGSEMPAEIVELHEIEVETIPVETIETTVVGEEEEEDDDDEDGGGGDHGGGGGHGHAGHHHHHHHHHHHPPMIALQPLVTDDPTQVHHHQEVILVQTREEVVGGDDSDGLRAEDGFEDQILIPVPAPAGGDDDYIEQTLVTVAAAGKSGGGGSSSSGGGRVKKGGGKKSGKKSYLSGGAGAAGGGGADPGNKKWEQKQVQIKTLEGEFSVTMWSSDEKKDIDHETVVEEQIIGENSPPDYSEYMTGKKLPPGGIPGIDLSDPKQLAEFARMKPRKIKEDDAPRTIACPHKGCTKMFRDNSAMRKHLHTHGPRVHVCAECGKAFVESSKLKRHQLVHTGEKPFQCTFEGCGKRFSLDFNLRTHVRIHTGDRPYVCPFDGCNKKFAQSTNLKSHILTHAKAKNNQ

As to `COc1cc2c(cc1O)CC[C@@H]1[C@@H]2CC[C@]2(C)[C@@H](O)CC[C@@H]12` [2-methoxyestradiol, 2-Methoxyestradiol], in [1], the “YY1 activity (luciferase reporter assay)” value was “marked reduction”. For the same molecule, the YY1 expression entry in test [2] was “marked reduction”.

For `NCCN(CCN)/[N+]([O-])=N/O` [DETANONOate, 3,3-bis(aminoethyl)-1-hydroxy-2-oxo-*1-triazene], the “sensitization to TRAIL-mediated apoptosis” value in test [3] is “sensitized”. Further, the “sensitization to Fas ligand-mediated apoptosis” value in [4] is on record as “sensitized”. Moreover, the “NF-κB DNA-binding activity” value in [5] is “inhibited”. In addition, in test [6], the DR5 expression entry is given as “significant upregulation of DR5 expression”. Further, the YY1 activity result in test [7] (B-NHL cell lines (Example 6)) is on record as “Inhibition of YY1 activity”. The “sensitization of TRAIL-resistant CaP cell lines” value in test [8] is “can be sensitized”. In addition, in [2], the YY1 expression result is on record as “inhibited YY1 expression”. The “sensitization to CH-11-induced apoptosis” value in [9] (B-NHL cell lines (Example 6)) is on record as “sensitization to CH-11-induced apoptosis”. In addition, the Fas expression entry in test [10] (B-NHL cell lines (Example 6)) is reported as “upregulation of Fas expression”. The “YY1 DNA-binding activity” value in [11] was “inhibited”.

Turning to rituximab: anti-CD20 antibody, the p38MAPK signaling pathway entry in test [12] was “inhibition”. Moreover, in [13], the sensitization to chemotherapy entry was “sensitizes”. Also, the values for the YY1 activity entry in [7] (B-NHL cell lines (Example 6)) and in [7] (NHL B cell lines (Example 9)) were “Inhibition of YY1 activity” and “inhibited”, respectively. Moreover, in test [14] (Bcl-xL overexpressing Ramos HA-BclxL cells), the “sensitization to drug-induced apoptosis” value is “not sensitized”. In addition, in test [14] (rituximab-resistant Ramos RR1 cells), the chemosensitization result is recorded as “cannot be chemosensitized”. Moreover, the “constitutive NF-κB activity” value in [15] is “inhibition”. Besides, the “sensitization to CH-11-induced apoptosis” value is “sensitized the cells to CH-11 (FasL agonist mAb)-induced apoptosis and synergy was achieved” in test [9] (2F7, Ramos and Raji, 20 μg/ml); “sensitization to CH-11-induced apoptosis” in test [9] (B-NHL cell lines (Example 6)). Further, the Fas expression entry is given as “upregulation of Fas expression” in [10] (B-NHL cell lines (Example 6)) and “up-regulated” in test [10] (NHL cell lines, as early as 6 h post treatment, flow cytometry, RT-PCR, Western). Moreover, the YY1 expression entry in test [16] is recorded as “inhibited”. Besides, the “sensitization to Fas-induced apoptosis” value in test [17] is given as “sensitizes”.

As for `CC[C@]1(O)C[C@H]2CN(CCc3c([nH]c4ccccc34)[C@@](C(=O)OC)(c3cc4c(cc3OC)N(C=O)[C@H]3[C@@](O)(C(=O)OC)[C@H](OC(C)=O)[C@]5(CC)C=CCN6CC[C@]43[C@@H]65)C2)C1` [vincristine], in test [18], the YY1 expression result is “significantly abrogated or diminished YY1 expression”.

Turning to `[NH2][Pt]([NH2])([Cl])[Cl]` [CDDP, cisplatin], the luciferase activity entry in test [19] is given as “significantly augmented luciferase activity”.

Turning to `[N]=O` [NO, nitric oxide], in test [20], the “general S-nitrosylation of proteins” value was “increased”.

For `COc1cccc2c1C(=O)c1c(O)c3c(c(O)c1C2=O)C[C@@](O)(C(=O)CO)C[C@@H]3O[C@H]1C[C@H](N)[C@H](O)[C@H](C)O1` [ADR, doxorubicin hydrochloride], the luciferase activity result in test [19] is reported as “significantly augmented luciferase activity”.

Source of the values: patent publication US20080311039A1, “Therapeutic and Prognostic Factor Yy1 in Human Cancer” (The Regents of the University of California, priority 2004, published 2008).
